From PubChem BioAssay AID330 (DTP/NCI, 2004)
Several values for one entry are separate records, joined by “and”; a condition that tells them apart may be missing. Equal values may be shown once. Inconclusive results and toxic doses are left out. The calls were made as follows: active = survival T/C of 150% or more; inactive = T/C below 125% in these data.

Test system: P388 leukemia ip, CD2F1 mice, survival T/C
Assay: NCI In Vivo Anticancer Drug Screen. Data for tumor model P388 Leukemia (intraperitoneal) in CD2F1 (CDF1) mice
Conditions: endpoint: median survival time, higher = longer survival
Method in brief: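 Mice carrying the transplanted tumor received test compound or vehicle. Survival was recorded in each group, and the value is the treated-group measurement divided by that of the vehicle-treated control group.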

[1] = dose: 25.0 mg/kg/injection, schedule: Q01DX005 (ip), vehicle: saline with Tween-80
[2] = dose: 50.0 mg/kg/injection, schedule: Q01DX005 (ip), vehicle: saline with Tween-80
[3] = dose: 100.0 mg/kg/injection, schedule: Q01DX005 (ip), vehicle: saline with Tween-80
[4] = dose: 200.0 mg/kg/injection, schedule: Q01DX005 (ip), vehicle: saline with Tween-80
[5] = dose: 50.0 mg/kg/injection, schedule: Q01DX005 (ip), vehicle: saline
[6] = dose: 100.0 mg/kg/injection, schedule: Q01DX005 (ip), vehicle: saline
[7] = dose: 50.0 mg/kg/injection, schedule: Q01DX005 (ip), vehicle: Klucel (hydroxypropylcellulose) (HPC)
[8] = dose: 100.0 mg/kg/injection, schedule: Q01DX005 (ip), vehicle: Klucel (hydroxypropylcellulose) (HPC)
[9] = dose: 200.0 mg/kg/injection, schedule: Q01DX005 (ip), vehicle: Klucel (hydroxypropylcellulose) (HPC)
[10] = dose: 12.5 mg/kg/injection, schedule: Q01DX005 (ip), vehicle: saline with Tween-80
[11] = dose: 100.0 mg/kg/injection, schedule: Q04DX002 (ip), vehicle: saline with Tween-80
[12] = dose: 200.0 mg/kg/injection, schedule: Q04DX002 (ip), vehicle: saline with Tween-80
[13] = dose: 400.0 mg/kg/injection, schedule: Q04DX002 (ip), vehicle: saline with Tween-80
[14] = dose: 60.0 mg/kg/injection, schedule: Q01DX005 (ip), vehicle: saline with Tween-80
[15] = dose: 120.0 mg/kg/injection, schedule: Q01DX005 (ip), vehicle: saline with Tween-80
[16] = dose: 240.0 mg/kg/injection, schedule: Q01DX005 (ip), vehicle: saline with Tween-80
[17] = dose: 50.0 mg/kg/injection, schedule: Q01DX009 (ip), vehicle: Klucel (hydroxypropylcellulose) (HPC)
[18] = dose: 100.0 mg/kg/injection, schedule: Q01DX009 (ip), vehicle: Klucel (hydroxypropylcellulose) (HPC)

Measured: T/C

NC(CC(=O)O)CC(=O)O
inactive: [1] 93 % of control | [2] 95 % of control | [3] 98 % of control | [4] 90 % of control | dose: 400.0 mg/kg/injection, schedule: Q01DX005 (ip), vehicle: saline with Tween-80 89 % of control

C[C@]12CC[C@H]3[C@@H](CCC4=C[C@@H](OC5OCC(OC6OC(CO)C(O)C(O)C6O)C(O)C5O)CC[C@@]43C=O)[C@@]1(O)CCC2C1=CC(=O)OC1 (stereo partly drawn)
inactive: dose: 0.16 mg/kg/injection, schedule: Q01DX009 (ip), vehicle: saline 105 % of control | dose: 0.25 mg/kg/injection, schedule: Q01DX009 (ip), vehicle: saline with Tween-80 95 % of control | dose: 0.31 mg/kg/injection, schedule: Q01DX009 (ip), vehicle: saline 108 % of control | dose: 0.5 mg/kg/injection, schedule: Q01DX009 (ip), vehicle: saline with Tween-80 107 % of control and 95 % of control | dose: 0.63 mg/kg/injection, schedule: Q01DX009 (ip), vehicle: saline 103 % of control | dose: 1.0 mg/kg/injection, schedule: Q01DX009 (ip), vehicle: saline with Tween-80 117 % of control and 97 % of control | dose: 1.25 mg/kg/injection, schedule: Q01DX009 (ip), vehicle: saline 103 % of control

OCCCOCCCO
inactive: [5] 109 % of control | [6] 101 % of control | dose: 200.0 mg/kg/injection, schedule: Q01DX005 (ip), vehicle: saline 114 % of control

CCCCCCCCCCCCS(=O)(=O)CCC(=O)c1ccco1
inactive: dose: 100.0 mg/kg/injection, schedule: Q04DX003 (ip), vehicle: saline 99 % of control | dose: 200.0 mg/kg/injection, schedule: Q04DX003 (ip), vehicle: saline 99 % of control | dose: 400.0 mg/kg/injection, schedule: Q04DX003 (ip), vehicle: saline 97 % of control

CC/C(Cc1ccc(OC)cc1)=C(/CC)c1ccc(OC)cc1
inactive: [7] 98 % of control | [8] 92 % of control | [9] 102 % of control

COc1ccc2nc3cc(Cl)ccc3c(NC(C)CCCN(C)C)c2n1 (stereo not drawn)
inactive: [5] 102 % of control | [6] 110 % of control

Cc1nnc(-n2nc(-c3ccc(Cl)cc3)cc2N)[nH]c1=O
inactive: [2] 98 % of control | [3] 106 % of control | [4] 93 % of control

NC(=N/C(=C/c1ccccc1)c1ccccc1)c1ccccc1
inactive: [2] 92 % of control | [3] 102 % of control

O=C(O)C(CO)Nc1ncnc2nc[nH]c12 (stereo not drawn)
inactive: [7] 106 % of control | [8] 109 % of control | [9] 109 % of control

CC(=O)OCC1=C(c2ccccc2)S(=O)(=O)c2ccccc2C1=O
inactive: [10] 108 % of control | [1] 106 % of control

Cc1ccc(C(C)(C)C)cc1Br
inactive: dose: 100.0 mg/kg/injection, schedule: Q01DX001 (ip), vehicle: other 95 % of control | dose: 200.0 mg/kg/injection, schedule: Q01DX001 (ip), vehicle: other 100 % of control | dose: 400.0 mg/kg/injection, schedule: Q01DX001 (ip), vehicle: other 88 % of control

O=S1(=O)CC(Cl)(Cl)C1
inactive: [2] 102 % of control | [3] 109 % of control

ClC1COc2cc(c3ccccc3c2)-c2c(ccc3ccccc23)OCCOCCOc2ccc3ccccc3c2-c2c(ccc3ccccc23)OCC(Cl)O1 (stereo not drawn)
inactive: [11] 102 % of control | [12] 102 % of control | [13] 105 % of control

Cc1nc(C)c(Cl)c(Cc2ncnc3ccccc23)n1
inactive: [1] 106 % of control | [2] 96 % of control | [3] 102 % of control

O=C(O)c1nn(-c2ccccc2)c2c1CS(=O)(=O)c1ccccc1-2
inactive: [11] 100 % of control | [12] 106 % of control | [13] 104 % of control

NC(S(=O)(=O)O)S(=O)(=O)O
inactive: dose: 50.0 mg/kg/injection, schedule: Q01DX009 (ip), vehicle: saline 105 % of control | dose: 100.0 mg/kg/injection, schedule: Q01DX009 (ip), vehicle: saline 110 % of control | dose: 200.0 mg/kg/injection, schedule: Q01DX009 (ip), vehicle: saline 96 % of control

Cc1cc(=O)[nH]c2cc(NN)ccc12
inactive: [14] 96 % of control | [15] 92 % of control | [16] 95 % of control

CCCOP(=O)(NNP(=O)(OCCC)OCCC)OCCC
inactive: dose: 50.0 mg/kg/injection, schedule: Q01DX009 (ip), vehicle: saline with Tween-80 106 % of control | dose: 100.0 mg/kg/injection, schedule: Q01DX009 (ip), vehicle: saline with Tween-80 116 % of control | dose: 200.0 mg/kg/injection, schedule: Q01DX009 (ip), vehicle: saline with Tween-80 116 % of control

CN(C)c1ccc2c(c1)Sc1cc(N(C)C)ccc1N2C(=O)c1ccccc1
inactive: dose: 12.5 mg/kg/injection, schedule: Q01DX009 (ip), vehicle: Klucel (hydroxypropylcellulose) (HPC) 105 % of control | dose: 25.0 mg/kg/injection, schedule: Q01DX009 (ip), vehicle: Klucel (hydroxypropylcellulose) (HPC) 103 % of control | [17] 102 % of control | [18] 98 % of control

CCOC(=O)c1c(Cl)c(Cc2ccccc2)c(Cl)n2c1nc1ccccc12
inactive: [14] 99 % of control | [15] 93 % of control | [16] 89 % of control

COC1=C(C2=C(OC)C(=O)c3cc4c(c(O)c3C2=O)C(=O)OC(C)C4)C(=O)c2c(cc3c(c2O)C(=O)OC(C)C3)C1=O (stereo not drawn)
inactive: dose: 6.25 mg/kg/injection, schedule: Q01DX009 (ip), vehicle: saline 100 % of control | dose: 12.5 mg/kg/injection, schedule: Q01DX009 (ip), vehicle: saline 98 % of control | dose: 25.0 mg/kg/injection, schedule: Q01DX009 (ip), vehicle: saline 103 % of control

COc1ccc(CCN(Cc2ccc([N+](=O)[O-])cc2)C(=O)c2ccccc2)c(C=O)c1OC
inactive: dose: 100.0 mg/kg/injection, schedule: Q01DX001 (ip), vehicle: saline + alcohol 95 % of control | dose: 200.0 mg/kg/injection, schedule: Q01DX001 (ip), vehicle: saline + alcohol 97 % of control | dose: 400.0 mg/kg/injection, schedule: Q01DX001 (ip), vehicle: saline + alcohol 89 % of control

COc1ccc(C2=CC(c3ccc(OC)cc3)(c3ccc(C(F)(F)F)cc3)C=C(c3ccc(OC)cc3)S2)cc1
inactive: [17] 97 % of control | [18] 93 % of control | dose: 200.0 mg/kg/injection, schedule: Q01DX009 (ip), vehicle: Klucel (hydroxypropylcellulose) (HPC) 90 % of control

Cc1c(N=Nc2cccc(F)c2)c(-c2ccccc2)nn1C(N)=S
inactive: [10] 95 % of control | [1] 95 % of control | [2] 101 % of control

S=c1nc(-c2nc(=S)[nH]c3c2CCCCCCCCCC3)c2c([nH]1)CCCCCCCCCC2
inactive: dose: 60.0 mg/kg/injection, schedule: Q01DX005 (ip), vehicle: Klucel (hydroxypropylcellulose) (HPC) 99 % of control | dose: 120.0 mg/kg/injection, schedule: Q01DX005 (ip), vehicle: Klucel (hydroxypropylcellulose) (HPC) 92 % of control | dose: 240.0 mg/kg/injection, schedule: Q01DX005 (ip), vehicle: Klucel (hydroxypropylcellulose) (HPC) 93 % of control
